In US9278981B2, “Compounds and compositions for inhibiting the activity of ABL1, ABL2 and BCR-ABL1” (Novartis AG, priority 2012, dated 2016):

Key:
ABL1 (64-515) [1] = biological target: T1, ABL1 (64-515) (Homo sapiens (Human), UniProt P00519); experiment: Radio ABL1 (64-515) assay (radiometric filter-binding); assay type: biochemical
ABL1 (64-515) [2] = biological target: T1, ABL1 (64-515); experiment: Caliper ABL1 (64-515) assay (microfluidic mobility shift); assay type: biochemical

T1 sequence (P00519 64-515): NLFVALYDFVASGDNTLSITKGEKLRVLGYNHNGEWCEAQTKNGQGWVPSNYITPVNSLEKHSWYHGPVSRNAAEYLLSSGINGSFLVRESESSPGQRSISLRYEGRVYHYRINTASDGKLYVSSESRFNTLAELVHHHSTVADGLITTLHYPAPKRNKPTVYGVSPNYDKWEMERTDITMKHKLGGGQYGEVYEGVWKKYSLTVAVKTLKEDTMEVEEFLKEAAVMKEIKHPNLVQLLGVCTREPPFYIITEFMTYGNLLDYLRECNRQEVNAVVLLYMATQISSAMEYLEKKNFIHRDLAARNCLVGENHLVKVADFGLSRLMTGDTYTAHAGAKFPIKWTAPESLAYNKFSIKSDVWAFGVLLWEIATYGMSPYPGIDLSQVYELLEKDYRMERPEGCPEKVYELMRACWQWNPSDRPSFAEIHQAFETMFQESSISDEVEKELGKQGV

SMILES	IC50 (ABL1 (64-515) [1]) [nM]	IC50 (ABL1 (64-515) [2]) [nM]	IC50 (ABL1 (64-515) [2]; comparison of ortho substitution on the R3/R4 ring) [nM]
CC(C)(O)C1CN(c2ncc(C(=O)Nc3ccc(OC(F)(F)F)cc3)cc2-c2cccnc2)C1 [Example 143, 2-(3-(2-Hydroxypropan-2-yl)azetidin-1-yl)-N-(4-(trifluoromethoxy)phenyl)-[3,3′-bipyridine]-5-carboxamide]	4	1.1	
O=C(Nc1ccc(OC(F)(F)F)cc1)c1cnc(N2C[C@H](CO)[C@@H](O)C2)c(-c2cncc(F)c2)c1 (relative stereo) [Example 92, 5′-Fluoro-2-(trans-3-hydroxy-4-(hydroxymethyl)pyrrolidin-1-yl)-N-(4-(trifluoromethoxy)phenyl)-[3,3′-bipyridine]-5-carboxamide]	6	0.7	
Cc1ccc(-c2cc(C(=O)Nc3ccc(OC(F)(F)F)cc3)cnc2N2CC(CO)C2)cn1 [Example 138, 2-(3-(Hydroxymethyl)azetidin-1-yl)-6′-methyl-N-(4-(trifluoromethoxy)phenyl)-[3,3′-bipyridine]-5-carboxamide]	7	0.8	
NCC1CN(c2ncc(C(=O)Nc3ccc(OC(F)(F)F)cc3)cc2-c2cncc(F)c2)CC1O (centres unmarked) [Example 237, 2-(3-(Aminomethyl)-4-hydroxypyrrolidin-1-yl)-5′-fluoro-N-(4-(trifluoromethoxy)phenyl)-[3,3′-bipyridine]-5-carboxamide]	0.6	1.2	
CN(CCO)c1ncc(C(=O)Nc2ccc(OC(F)(F)Cl)cc2)cc1-c1cncnc1 [Example 179, N-(4-(Chlorodifluoromethoxy)phenyl)-6-((2-hydroxyethyl)(methyl)amino)-5-(pyrimidin-5-yl)nicotinamide]	2	0.8	
CN(CCO)c1ncc(C(=O)Nc2ccc(SC(F)(F)F)cc2)cc1-c1cncc(F)c1 [Example 193, 5′-Fluoro-2-((2-hydroxyethyl)(methyl)amino)-N-(4-((trifluoromethyl)thio)phenyl)-[3,3′-bipyridine]-5-carboxamide]	2.3	0.4	
O=C(Nc1ccc(OC(F)(F)Cl)cc1)c1cnc(N2C[C@H](O)[C@@H](O)C2)c(-c2cncc(F)c2)c1 [Example 265]	3	< 0.13	
Cc1ccc(-c2cc(C(=O)Nc3ccc(OC(F)(F)F)cc3)cnc2N2CC[C@H](CO)C2)cn1 [Example 82, (S)-2-(3-(Hydroxymethyl)pyrrolidin-1-yl)-6′-methyl-N-(4-(trifluoromethoxy)phenyl)-[3,3′-bipyridine]-5-carboxamide]	< 3	0.6	
CN(CCO)c1ncc(C(=O)Nc2ccc(SC(F)(F)F)cc2)cc1-c1cncc(C#N)c1 [Example 194, 5′-Cyano-2-((2-hydroxyethyl)(methyl)amino)-N-(4-((trifluoromethyl)thio)phenyl)-[3,3′-bipyridine]-5-carboxamide]	5	1.4	
Cc1ncc(-c2cc(C(=O)Nc3ccc(OC(F)(F)F)cc3)cnc2N2CC[C@H](CO)C2)cc1F [Example 87, (S)-5′-Fluoro-2-(3-(hydroxymethyl)pyrrolidin-1-yl)-6′-methyl-N-(4-(trifluoromethoxy)phenyl)-[3,3′-bipyridine]-5-carboxamide]	6	0.7	
CC(C)(C)Oc1ccc(NC(=O)c2cnc(N3CC[C@@H](O)C3)c(-c3cncnc3)c2)cc1 [Example 219, (R)—N-(4-(tert-Butoxy)phenyl)-6-(3-hydroxypyrrolidin-1-yl)-5-(pyrimidin-5-yl)nicotinamide]	16	16	
Cc1ccc(-c2cc(C(=O)Nc3ccc(OC(F)(F)F)cc3)ccc2N2C[C@H](O)[C@@H](O)C2)cn1 [Example 9, 4-((3S,4S)-3,4-Dihydroxypyrrolidin-1-yl)-3-(6-methylpyridin-3-yl)-N-(4-(trifluoromethoxy)phenyl)benzamide]	17	1.8	
Cc1ccc(-c2cc(C(=O)Nc3ccc(OC(F)(F)F)cc3)cnc2N2CC(C)(O)C2)cn1 [Example 131, 2-(3-Hydroxy-3-methylazetidin-1-yl)-6′-methyl-N-(4-(trifluoromethoxy)phenyl)-[3,3′-bipyridine]-5-carboxamide]	8.4	1.3	
CCN(CCO)c1ncc(C(=O)Nc2ccc(OC(F)(F)Cl)cc2)cc1-c1cncc(F)c1 [Example 183, N-(4-(Chlorodifluoromethoxy)phenyl)-2-(ethyl(2-hydroxyethyl)amino)-5′-fluoro-[3,3′-bipyridine]-5-carboxamide]	2	0.5	
N#Cc1ncc(F)cc1-c1cc(C(=O)Nc2ccc(OC(F)(F)Cl)cc2)cnc1N1CC[C@@H](O)C1 [Example 292, (R)—N-(4-(Chlorodifluoromethoxy)phenyl)-2′-cyano-5′-fluoro-2-(3-hydroxypyrrolidin-1-yl)-[3,3′-bipyridine]-5-carboxamide]		0.5	
Cc1ccc(F)cc1-c1cc(C(=O)Nc2ccc(OC(F)(F)Cl)cc2)cnc1N1CC[C@@H](O)C1 [Example 294, (R)—N-(4-(Chlorodifluoromethoxy)phenyl)-5-(5-fluoro-2-methylphenyl)-6-(3-hydroxypyrrolidin-1-yl)nicotinamide]		3	

Results, then the compound that gave them:

IC50 (ABL1 (64-515) [1]) [nM]	IC50 (ABL1 (64-515) [2]) [nM]	IC50 (ABL1 (64-515) [2]; comparison of ortho substitution on the R3/R4 ring) [nM]	SMILES
< 3	< 0.13		O=C(Nc1ccc(SC(F)(F)F)c(F)c1)c1cnc(N2CC[C@@H](O)C2)c(-c2cncnc2)c1 [Example 205, (R)—N-(3-Fluoro-4-((trifluoromethyl)thio)phenyl)-6-(3-hydroxypyrrolidin-1-yl)-5-(pyrimidin-5-yl)nicotinamide]
< 3	1.9		O=C(Nc1ccc(OC(F)(F)F)cc1)c1cnc(N2CC(O)C2)c(-c2cncnc2)c1 [Example 25]
< 3	0.5		O=C(Nc1ccc(C(F)(F)C(F)(F)F)cc1)c1cnc(N2CC[C@@H](O)C2)c(-c2cncc(F)c2)c1 [Example 209, (R)-5′-Fluoro-2-(3-hydroxypyrrolidin-1-yl)-N-(4-(perfluoroethyl)phenyl)-[3,3′-bipyridine]-5-carboxamide]
4	< 0.13		O=C(Nc1ccc(OC(F)(F)F)cc1)c1cnc(N2CC[C@H](CO)C2)c(-c2ccc(Cl)nc2)c1 [Example 88, (S)-6′-Chloro-2-(3-(hydroxymethyl)pyrrolidin-1-yl)-N-(4-(trifluoromethoxy)phenyl)-[3,3′-bipyridine]-5-carboxamide]
3	1.2		O=C(Nc1ccc(OC(F)(F)F)cc1)c1cnc(N2CC[C@@H](O)C2)c(-c2ccc(F)nc2)c1 [Example 47, (R)-6′-Fluoro-2-(3-hydroxypyrrolidin-1-yl)-N-(4-(trifluoromethoxy)phenyl)-[3,3′-bipyridine]-5-carboxamide]
3.4	0.7		O=C(Nc1ccc(OC(F)(F)F)c(F)c1)c1cnc(N2CC[C@H](CO)C2)c(-c2cncc(F)c2)c1 [Example 202, (S)-5′-Fluoro-N-(3-fluoro-4-(trifluoromethoxy)phenyl)-2-(3-(hydroxymethyl)pyrrolidin-1-yl)-[3,3′-bipyridine]-5-carboxamide]
3	8		O=C(Nc1ccc(SC(F)(F)F)nc1)c1cnc(N2CC[C@@H](O)C2)c(-c2cncnc2)c1 [Example 279, (R)-6-(3-Hydroxypyrrolidin-1-yl)-5-(pyrimidin-5-yl)-N-(6-((trifluoromethyl)thio)pyridin-3-yl)nicotinamide]
1.3	0.5		O=C(Nc1ccc(OC(F)(F)Cl)cc1)c1ccc(N2CC[C@@H](O)C2)c(-c2cncnc2)c1 [Example 243, (R)—N-(4-(Chlorodifluoromethoxy)phenyl)-4-(3-hydroxypyrrolidin-1-yl)-3-(pyrimidin-5-yl)benzamide]
< 3	0.8		Cc1ccc(-c2cc(C(=O)Nc3ccc(OC(F)(F)F)cc3)cnc2N2CC[C@@H](O)C2)cn1 [Example 41, (R)-2-(3-Hydroxypyrrolidin-1-yl)-6′-methyl-N-(4-(trifluoromethoxy)phenyl)-[3,3′-bipyridine]-5-carboxamide]
2.4	4		O=C(Nc1ccc(OC(F)(F)F)cc1)c1cnc(N2CCCOCC2)c(-c2cncnc2)c1 [Example 233]
6	2.3		O=C(Nc1ccc(OC(F)(F)C(F)(F)F)cc1)c1cnc(N2CC[C@@H](O)C2)c(-c2cncnc2)c1 [Example 220, (R)-6-(3-Hydroxypyrrolidin-1-yl)-N-(4-(perfluoroethoxy)phenyl)-5-(pyrimidin-5-yl)nicotinamide]
4	1.1		O=C(Nc1ccc(OC(F)(F)Cl)cc1)c1cnc(N2CC[C@@H](O)C2)c(-c2cc(F)cnc2F)c1 [Example 272]
1.6	4.7		O=C(Nc1ccc(OC(F)(F)F)cc1)c1cnc(N2CCC(F)(F)C2)c(-c2cncnc2)c1 [Example 224, 6-(3,3-Difluoropyrrolidin-1-yl)-5-(pyrimidin-5-yl)-N-(4-(trifluoromethoxy)phenyl)nicotinamide]
3	1		O=C(Nc1ccc(SC(F)(F)F)cc1)c1cnc(N2CC[C@H](CO)C2)c(-c2cncnc2)c1 [Example 189, (S)-6-(3-(Hydroxymethyl)pyrrolidin-1-yl)-5-(pyrimidin-5-yl)-N-(4-((trifluoromethyl)thio)phenyl)nicotinamide]
3	2.5		O=C(Nc1ccc(OC(F)(F)F)cc1)c1cnc(N2CCOCC2)c(-c2cncnc2)c1 [Example 148, 6-Morpholino-5-(pyrimidin-5-yl)-N-(4-(trifluoromethoxy)phenyl)nicotinamide]
1	0.3		NC[C@@H]1CCN(c2ncc(C(=O)Nc3ccc(OC(F)(F)Cl)cc3)cc2-c2cncnc2)C1 [Example 177, (S)-6-(3-(Aminomethyl)pyrrolidin-1-yl)-N-(4-(chlorodifluoromethoxy)phenyl)-5-(pyrimidin-5-yl)nicotinamide]
< 0.1	0.7		CN(C)[C@H]1CN(c2ncc(C(=O)Nc3ccc(OC(F)(F)Cl)cc3)cc2-c2cncnc2)C[C@@H]1O [Example 251]
		> 10000	O=C(Nc1c(Cl)cc(OC(F)(F)F)cc1Cl)c1cnc(N2CC[C@@H](O)C2)c(-c2cncnc2)c1
